Measured values taken from ChEMBL document CHEMBL4507284, “Data for DCP probe BI-1230” (2021).

Tests used:
[1] = biological target: Cyclin-dependent kinase 8 (Homo sapiens) (UniProt P49336); details: Compound concentration 1000.0 nM
[2] = biological target: 1-phosphatidylinositol 3-phosphate 5-kinase (Homo sapiens) (UniProt Q9Y2I7); details: Compound concentration 1000.0 nM
[3] = tested on: Epidermal growth factor receptor (Homo sapiens), P00533 [UNDEFINED MUTATION]; details: Compound concentration 1000.0 nM
[4] = biological target: Ribosomal protein S6 kinase alpha-1 (Homo sapiens) (UniProt Q15418); details: Compound concentration 1000.0 nM
[5] = biological target: Ribosomal protein S6 kinase alpha-3 (Homo sapiens) (UniProt P51812); details: Compound concentration 1000.0 nM
[6] = biological target: Cyclin-dependent kinase 13 (Homo sapiens) (UniProt Q14004); details: Compound concentration 1000.0 nM
[7] = biological target: SRSF protein kinase 1 (Homo sapiens) (UniProt Q96SB4); details: Compound concentration 1000.0 nM
[8] = biological target: Mitogen-activated protein kinase 3 (Homo sapiens) (UniProt P27361); details: Compound concentration 1000.0 nM
[9] = tested on: Phosphatidylinositol 4,5-bisphosphate 3-kinase catalytic subunit alpha isoform (Homo sapiens), P42336 [E545K]; details: Compound concentration 1000.0 nM
[10] = biological target: Myosin light chain kinase, smooth muscle (Homo sapiens) (UniProt Q15746); details: Compound concentration 1000.0 nM
[11] = biological target: Serine/threonine-protein kinase Nek5 (Homo sapiens) (UniProt Q6P3R8); details: Compound concentration 1000.0 nM
[12] = biological target: Casein kinase I isoform gamma-1 (Homo sapiens) (UniProt Q9HCP0); details: Compound concentration 1000.0 nM
[13] = tested on: Phosphatidylinositol 4,5-bisphosphate 3-kinase catalytic subunit alpha isoform (Homo sapiens), P42336 [H1047L]; details: Compound concentration 1000.0 nM
[14] = biological target: TRAF2 and NCK-interacting protein kinase (Homo sapiens) (UniProt Q9UKE5); details: Compound concentration 1000.0 nM
[15] = tested on: Mast/stem cell growth factor receptor Kit (Homo sapiens), P10721 [D816H]; details: Compound concentration 1000.0 nM
[16] = biological target: Activin receptor type-1B (Homo sapiens) (UniProt P36896); details: Compound concentration 1000.0 nM
[17] = tested on: Epidermal growth factor receptor (Homo sapiens), P00533 [L858R,T790M]; details: Compound concentration 1000.0 nM
[18] = biological target: Histamine H1 receptor (Homo sapiens) (UniProt P35367); details: Compound concentration 10.0 uM
[19] = biological target: Death-associated protein kinase 1 (Homo sapiens) (UniProt P53355); details: Compound concentration 1000.0 nM
[20] = biological target: Mitogen-activated protein kinase kinase kinase 10 (Homo sapiens) (UniProt Q02779); details: Compound concentration 1000.0 nM
[21] = biological target: Wee1-like protein kinase (Homo sapiens) (UniProt P30291); details: Compound concentration 1000.0 nM
[22] = tested on: Tyrosine-protein kinase ABL1 (Homo sapiens), P00519 [Y253F]; details: Compound concentration 1000.0 nM
[23] = biological target: Serine/threonine-protein kinase pim-1 (Homo sapiens) (UniProt P11309); details: Compound concentration 1000.0 nM
[24] = biological target: Tyrosine-protein kinase JAK2 (Homo sapiens) (UniProt O60674); details: Compound concentration 1000.0 nM
[25] = biological target: Mitogen-activated protein kinase kinase kinase kinase 5 (Homo sapiens) (UniProt Q9Y4K4); details: Compound concentration 1000.0 nM
[26] = biological target: Serine/threonine-protein kinase ICK (Homo sapiens) (UniProt Q9UPZ9); details: Compound concentration 1000.0 nM
[27] = biological target: Dual serine/threonine and tyrosine protein kinase (Homo sapiens) (UniProt Q6XUX3); details: Compound concentration 1000.0 nM
[28] = biological target: Serine/threonine-protein kinase Nek11 (Homo sapiens) (UniProt Q8NG66); details: Compound concentration 1000.0 nM
[29] = biological target: Aurora kinase B (Homo sapiens) (UniProt Q96GD4); details: Compound concentration 1000.0 nM
[30] = biological target: STE20-like serine/threonine-protein kinase (Homo sapiens) (UniProt Q9H2G2); details: Compound concentration 1000.0 nM
[31] = biological target: Macrophage-stimulating protein receptor (Homo sapiens) (UniProt Q04912); details: Compound concentration 1000.0 nM
[32] = biological target: Bone morphogenetic protein receptor type-1A (Homo sapiens) (UniProt P36894); details: Compound concentration 1000.0 nM
[33] = tested on: Epidermal growth factor receptor (Homo sapiens), P00533 [L858R]; details: Compound concentration 1000.0 nM
[34] = biological target: D(1B) dopamine receptor (Homo sapiens) (UniProt P21918); details: Compound concentration 10.0 uM
[35] = tested on: ALK tyrosine kinase receptor (Homo sapiens), Q9UM73 [C1156Y]; details: Compound concentration 1000.0 nM
[36] = biological target: cGMP-dependent protein kinase 1 (Homo sapiens) (UniProt Q13976); details: Compound concentration 1000.0 nM
[37] = biological target: Dual specificity mitogen-activated protein kinase kinase 4 (Homo sapiens) (UniProt P45985); details: Compound concentration 1000.0 nM
[38] = biological target: ALK tyrosine kinase receptor (Homo sapiens) (UniProt Q9UM73); details: Compound concentration 1000.0 nM
[39] = biological target: Cyclin-dependent kinase 3 (Homo sapiens) (UniProt Q00526); details: Compound concentration 1000.0 nM
[40] = biological target: Non-receptor tyrosine-protein kinase TYK2 (Homo sapiens) (UniProt P29597); details: Compound concentration 1000.0 nM
[41] = biological target: Phosphatidylinositol 4-phosphate 5-kinase type-1 alpha (Homo sapiens) (UniProt Q99755); details: Compound concentration 1000.0 nM
[42] = biological target: Discoidin domain-containing receptor 2 (Homo sapiens) (UniProt Q16832); details: Compound concentration 1000.0 nM
[43] = biological target: Serine/threonine-protein kinase WNK1 (Homo sapiens) (UniProt Q9H4A3); details: Compound concentration 1000.0 nM
[44] = biological target: Activin receptor type-1-like (Homo sapiens) (UniProt P37023); details: Compound concentration 1000.0 nM
[45] = biological target: Vascular endothelial growth factor receptor 3 (Homo sapiens) (UniProt P35916); details: Compound concentration 1000.0 nM

Sequence of Serine/threonine-protein kinase Nek5 (Homo sapiens) (Q6P3R8 whole entry, canonical isoform): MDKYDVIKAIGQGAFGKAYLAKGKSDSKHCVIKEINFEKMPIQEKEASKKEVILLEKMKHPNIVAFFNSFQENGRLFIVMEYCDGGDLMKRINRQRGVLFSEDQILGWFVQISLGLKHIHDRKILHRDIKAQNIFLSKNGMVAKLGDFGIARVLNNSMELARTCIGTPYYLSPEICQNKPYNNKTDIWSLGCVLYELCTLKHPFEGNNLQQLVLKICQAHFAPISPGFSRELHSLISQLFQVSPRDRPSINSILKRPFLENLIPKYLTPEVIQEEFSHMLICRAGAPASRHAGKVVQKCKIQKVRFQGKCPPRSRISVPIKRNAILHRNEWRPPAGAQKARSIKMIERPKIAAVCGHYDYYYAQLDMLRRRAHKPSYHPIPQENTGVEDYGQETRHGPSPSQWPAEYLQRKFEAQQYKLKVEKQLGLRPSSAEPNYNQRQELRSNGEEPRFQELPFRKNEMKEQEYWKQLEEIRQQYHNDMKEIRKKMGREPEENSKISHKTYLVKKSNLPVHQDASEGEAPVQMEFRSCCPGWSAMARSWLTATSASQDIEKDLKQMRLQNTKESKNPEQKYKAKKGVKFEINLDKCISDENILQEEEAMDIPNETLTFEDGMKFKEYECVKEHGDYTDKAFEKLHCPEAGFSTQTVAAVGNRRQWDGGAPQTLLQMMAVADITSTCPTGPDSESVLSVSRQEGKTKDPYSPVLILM
Sequence of TRAF2 and NCK-interacting protein kinase (Homo sapiens) (Q9UKE5 whole entry, looked up): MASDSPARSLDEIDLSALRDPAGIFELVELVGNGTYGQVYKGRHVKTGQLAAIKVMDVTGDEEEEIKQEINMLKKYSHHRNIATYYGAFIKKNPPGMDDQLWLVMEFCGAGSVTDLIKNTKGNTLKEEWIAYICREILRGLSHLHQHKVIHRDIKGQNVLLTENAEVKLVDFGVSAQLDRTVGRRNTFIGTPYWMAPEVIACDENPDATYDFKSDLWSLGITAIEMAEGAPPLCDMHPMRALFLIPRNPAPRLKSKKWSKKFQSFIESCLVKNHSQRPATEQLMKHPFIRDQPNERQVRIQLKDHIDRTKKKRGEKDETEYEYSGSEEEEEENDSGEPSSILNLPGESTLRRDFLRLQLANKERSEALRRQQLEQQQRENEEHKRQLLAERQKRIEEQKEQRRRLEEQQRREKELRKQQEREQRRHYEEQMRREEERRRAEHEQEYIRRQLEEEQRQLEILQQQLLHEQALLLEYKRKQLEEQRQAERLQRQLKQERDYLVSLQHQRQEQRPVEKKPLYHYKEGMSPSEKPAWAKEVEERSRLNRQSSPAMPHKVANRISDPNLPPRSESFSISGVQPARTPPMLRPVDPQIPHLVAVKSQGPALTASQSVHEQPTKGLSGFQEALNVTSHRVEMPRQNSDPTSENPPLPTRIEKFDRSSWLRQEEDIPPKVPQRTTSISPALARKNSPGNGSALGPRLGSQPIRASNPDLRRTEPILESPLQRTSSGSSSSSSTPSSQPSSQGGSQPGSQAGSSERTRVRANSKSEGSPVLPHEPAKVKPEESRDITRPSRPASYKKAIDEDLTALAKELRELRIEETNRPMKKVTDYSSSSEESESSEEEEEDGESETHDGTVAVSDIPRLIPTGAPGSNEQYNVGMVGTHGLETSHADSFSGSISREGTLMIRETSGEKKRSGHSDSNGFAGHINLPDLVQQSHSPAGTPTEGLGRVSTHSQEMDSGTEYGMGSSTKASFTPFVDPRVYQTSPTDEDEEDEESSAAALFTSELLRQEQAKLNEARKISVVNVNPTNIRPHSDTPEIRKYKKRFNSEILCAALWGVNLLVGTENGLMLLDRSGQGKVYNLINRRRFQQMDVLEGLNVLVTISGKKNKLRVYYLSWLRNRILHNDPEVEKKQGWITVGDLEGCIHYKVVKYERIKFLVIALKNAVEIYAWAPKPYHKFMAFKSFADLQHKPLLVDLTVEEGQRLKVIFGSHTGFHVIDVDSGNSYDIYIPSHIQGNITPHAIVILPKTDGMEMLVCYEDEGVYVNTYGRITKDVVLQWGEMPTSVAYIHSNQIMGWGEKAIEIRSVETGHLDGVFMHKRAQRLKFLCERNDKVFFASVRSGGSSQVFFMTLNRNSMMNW
Sequence of Serine/threonine-protein kinase WNK1 (Homo sapiens) (Q9H4A3 whole entry, looked up): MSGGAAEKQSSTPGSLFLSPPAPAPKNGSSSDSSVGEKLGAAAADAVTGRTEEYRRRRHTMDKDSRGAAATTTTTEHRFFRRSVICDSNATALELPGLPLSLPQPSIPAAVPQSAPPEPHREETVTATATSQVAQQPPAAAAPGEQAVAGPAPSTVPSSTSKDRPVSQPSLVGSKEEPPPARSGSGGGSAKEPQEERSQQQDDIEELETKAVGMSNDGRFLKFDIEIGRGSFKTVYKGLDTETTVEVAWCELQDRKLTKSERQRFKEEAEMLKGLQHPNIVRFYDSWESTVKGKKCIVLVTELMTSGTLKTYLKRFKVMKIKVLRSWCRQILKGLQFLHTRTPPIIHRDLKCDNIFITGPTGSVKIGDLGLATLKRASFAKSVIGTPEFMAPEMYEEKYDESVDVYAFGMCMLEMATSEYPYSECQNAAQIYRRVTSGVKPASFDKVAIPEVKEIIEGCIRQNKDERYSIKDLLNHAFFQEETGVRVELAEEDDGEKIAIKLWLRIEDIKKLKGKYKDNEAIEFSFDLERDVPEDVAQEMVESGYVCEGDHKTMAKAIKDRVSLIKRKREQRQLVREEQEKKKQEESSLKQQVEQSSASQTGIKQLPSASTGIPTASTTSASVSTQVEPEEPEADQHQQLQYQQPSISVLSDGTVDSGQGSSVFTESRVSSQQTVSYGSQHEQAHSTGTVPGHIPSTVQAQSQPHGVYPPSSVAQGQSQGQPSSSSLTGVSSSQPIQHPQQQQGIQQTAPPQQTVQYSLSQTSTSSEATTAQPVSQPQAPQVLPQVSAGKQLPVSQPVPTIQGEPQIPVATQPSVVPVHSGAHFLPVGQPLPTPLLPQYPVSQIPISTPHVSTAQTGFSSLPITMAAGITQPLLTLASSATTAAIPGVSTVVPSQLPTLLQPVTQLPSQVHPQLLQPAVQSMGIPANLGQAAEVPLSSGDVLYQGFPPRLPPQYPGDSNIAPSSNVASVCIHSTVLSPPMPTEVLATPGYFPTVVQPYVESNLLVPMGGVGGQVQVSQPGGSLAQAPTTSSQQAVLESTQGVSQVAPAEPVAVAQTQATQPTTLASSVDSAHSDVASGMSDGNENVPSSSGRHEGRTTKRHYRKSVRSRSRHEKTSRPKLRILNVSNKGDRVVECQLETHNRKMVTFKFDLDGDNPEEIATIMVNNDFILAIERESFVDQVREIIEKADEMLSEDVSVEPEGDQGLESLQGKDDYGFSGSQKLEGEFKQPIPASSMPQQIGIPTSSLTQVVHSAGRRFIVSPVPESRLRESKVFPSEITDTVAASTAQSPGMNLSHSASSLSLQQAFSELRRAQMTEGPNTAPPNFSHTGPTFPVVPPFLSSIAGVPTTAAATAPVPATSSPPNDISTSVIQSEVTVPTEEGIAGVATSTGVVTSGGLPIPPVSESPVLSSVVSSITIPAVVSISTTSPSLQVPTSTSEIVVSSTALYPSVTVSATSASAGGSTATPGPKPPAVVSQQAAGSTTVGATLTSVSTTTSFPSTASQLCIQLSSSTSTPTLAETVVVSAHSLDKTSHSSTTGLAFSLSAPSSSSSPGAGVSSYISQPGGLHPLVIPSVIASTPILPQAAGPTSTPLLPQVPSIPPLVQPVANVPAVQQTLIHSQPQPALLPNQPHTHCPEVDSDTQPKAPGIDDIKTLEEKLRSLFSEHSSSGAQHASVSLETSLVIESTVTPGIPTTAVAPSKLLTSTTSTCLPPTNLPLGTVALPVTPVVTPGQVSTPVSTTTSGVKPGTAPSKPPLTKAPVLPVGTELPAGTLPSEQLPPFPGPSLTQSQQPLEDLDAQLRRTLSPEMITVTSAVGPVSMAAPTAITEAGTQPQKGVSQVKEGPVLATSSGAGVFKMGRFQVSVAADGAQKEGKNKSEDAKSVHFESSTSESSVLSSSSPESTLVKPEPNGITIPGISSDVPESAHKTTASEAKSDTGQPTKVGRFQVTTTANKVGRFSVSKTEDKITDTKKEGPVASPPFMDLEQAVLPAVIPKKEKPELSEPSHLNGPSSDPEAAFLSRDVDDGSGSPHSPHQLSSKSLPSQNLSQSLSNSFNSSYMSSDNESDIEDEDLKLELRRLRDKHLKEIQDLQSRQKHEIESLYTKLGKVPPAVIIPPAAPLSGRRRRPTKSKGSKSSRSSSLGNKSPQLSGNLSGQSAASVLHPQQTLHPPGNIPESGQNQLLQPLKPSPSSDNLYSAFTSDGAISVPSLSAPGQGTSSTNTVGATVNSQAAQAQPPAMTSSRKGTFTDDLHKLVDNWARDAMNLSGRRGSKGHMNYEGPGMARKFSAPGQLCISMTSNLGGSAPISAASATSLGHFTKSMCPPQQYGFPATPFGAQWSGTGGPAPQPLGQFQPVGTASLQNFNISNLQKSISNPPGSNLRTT
Sequence of Cyclin-dependent kinase 8 (Homo sapiens) (P49336 whole entry): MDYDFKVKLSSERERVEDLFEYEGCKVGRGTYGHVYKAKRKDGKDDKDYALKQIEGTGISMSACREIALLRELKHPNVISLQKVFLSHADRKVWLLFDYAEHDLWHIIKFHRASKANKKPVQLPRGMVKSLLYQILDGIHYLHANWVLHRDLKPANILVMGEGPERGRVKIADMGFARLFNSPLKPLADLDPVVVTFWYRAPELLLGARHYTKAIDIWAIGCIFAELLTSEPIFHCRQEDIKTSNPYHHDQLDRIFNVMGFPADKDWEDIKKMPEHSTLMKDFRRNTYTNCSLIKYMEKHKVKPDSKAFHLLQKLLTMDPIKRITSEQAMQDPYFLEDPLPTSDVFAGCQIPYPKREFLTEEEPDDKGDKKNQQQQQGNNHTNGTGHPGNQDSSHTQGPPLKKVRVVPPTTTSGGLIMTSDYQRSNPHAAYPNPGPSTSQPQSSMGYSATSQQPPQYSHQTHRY

COc1ccc2c(O[C@@H]3C[C@H]4C(=O)N[C@]5(C(=O)O)CC5/C=C\CCCCC[C@H](NC(=O)OC5CCCC5)C(=O)N4C3)cc(-c3csc(NC(=O)C(C)C)n3)nc2c1C (stereo not given in full) [BI 1230]
inactive: residual activity [1] 68% | residual activity [2] 100% | residual activity [3] 81% | residual activity [4] 74% | residual activity [5] 100% | residual activity [6] 77% | residual activity [7] 100% | residual activity [8] 94% | residual activity [9] 68% | residual activity [10] 78% | residual activity [11] 98% | residual activity [12] 94% | residual activity [13] 79% | residual activity [14] 96% | residual activity [15] 86% | residual activity [16] 100% | residual activity [17] 100% | inhibition [18] 31.5% | residual activity [19] 100% | residual activity [20] 93% | residual activity [21] 100% | residual activity [22] 87% | residual activity [23] 97% | residual activity [24] 64% | residual activity [25] 100% | residual activity [26] 68% | residual activity [27] 68% | residual activity [28] 84% | residual activity [29] 91% | residual activity [30] 100% | residual activity [31] 100% | residual activity [32] 100% | residual activity [33] 100% | inhibition [34] 47.1% | residual activity [35] 100% | residual activity [36] 100% | residual activity [37] 100% | residual activity [38] 74% | residual activity [39] 100% | residual activity [40] 100% | residual activity [41] 98% | residual activity [42] 88% | residual activity [43] 100% | residual activity [44] 97% | residual activity [45] 100%

O=C(N[C@H]1CCCCC/C=C\C2C[C@@]2(C(=O)O)NC(=O)[C@@H]2C[C@@H](Oc3ccncc3)CN2C1=O)OC1CCCC1 (stereo not given in full) [BI 1675]
inactive: residual activity [1] 66% | residual activity [2] 100% | residual activity [3] 85% | residual activity [4] 100% | residual activity [5] 100% | residual activity [6] 90% | residual activity [7] 91% | residual activity [8] 69% | residual activity [9] 95% | residual activity [10] 100% | residual activity [11] 91% | residual activity [12] 88% | residual activity [13] 100% | residual activity [14] 78% | residual activity [15] 100% | residual activity [16] 100% | residual activity [17] 98% | inhibition [18] 23.9% | residual activity [19] 83% | residual activity [20] 100% | residual activity [21] 100% | residual activity [22] 100% | residual activity [23] 100% | residual activity [24] 100% | residual activity [25] 100% | residual activity [26] 85% | residual activity [27] 100% | residual activity [28] 100% | residual activity [29] 89% | residual activity [30] 100% | residual activity [31] 97% | residual activity [32] 100% | residual activity [33] 96% | inhibition [34] 11.3% | residual activity [35] 100% | residual activity [36] 100% | residual activity [37] 73% | residual activity [38] 100% | residual activity [39] 100% | residual activity [40] 98% | residual activity [41] 99% | residual activity [42] 100% | residual activity [43] 90% | residual activity [44] 84% | residual activity [45] 93%
